# Assay results taken from ChEMBL document CHEMBL4414576, “Recent advancements in mechanistic studies and structure activity relationship of FoF1 ATP synthase inhibitor as antimicrobial agent” (Eur J Med Chem, 2019).
# Legend:
# Escherichia coli [1] = experiment: Inhibition of F1F0-ATP synthase in Escherichia coli after 60 mins relative to control; parameters: concentration or dose not given beside the values
# [2] = system: Mycobacterium tuberculosis; experiment: Antimicrobial activity against Mycobacterium tuberculosis H37Rv after 5 days; format: functional
# ATP synthase = experiment: Inhibition of ATP synthase in Mycobacterium tuberculosis H37Rv; format: protein-complex assay
# [3] = Inhibition of F1F0-ATP synthase in Escherichia coli after 60 mins
# [4] = Inhibition of ATP synthase isolates from rat brain cells using succinate as substrate preincubated for 5 mins followed by substrate addition
# [5] = Inhibition of ATP synthase in Mycobacterium smegmatis; parameters: species or system Mycolicibacterium smegmatis
# [6] = Selectivity index, ratio of CC50 for human HepG2 cells to MIC of Mycobacterium tuberculosis H37Rv; format: toxicity
# [7] = system: Mycobacterium tuberculosis; experiment: Antimicrobial activity against Mycobacterium tuberculosis H37Rv; format: functional, organism-based
# [8] = system: Mycobacterium tuberculosis H37Rv; experiment: Inhibition of F0F1-ATP synthase in Mycobacterium tuberculosis H37Rv at […] using succinate as substrate preincubated for 10 mins followed by substrate addition by luciferase reporter gene assay relative to control
# Escherichia coli [9] = experiment: Inhibition of F1F0-ATP synthase in Escherichia coli relative to control; parameters: concentration or dose not given beside the values; details: concentration not given here
# [10] = Inhibition of F1F0-ATP synthase in Escherichia coli
# Saccharomyces cerevisiae = experiment: Inhibition of F1F0-ATP synthase in yeast relative to control; details: concentration not given here
# [11] = Selectivity index, ratio of CC50 for African green monkey Vero cells to IC50 of Mycobacterium tuberculosis H37Rv; format: toxicity; details: read-out: Ratio IC50
# Escherichia coli [12] = experiment: Inhibition of ATP synthase in Escherichia coli relative to control; details: concentration not given here
# [13] = Inhibition of ATP synthase in Escherichia coli
# [14] = Selectivity index, ratio of IC50 for ATP synthase in Mycobacterium tuberculosis H37Rv to IC50 for mitochondrial ATP synthase isolated from swiss albino mouse liver
# Mus musculus = organism: Mus musculus; experiment: Inhibition of mitochondrial ATP synthase isolated from Swiss albino mouse liver at 100 uM using succinate as substrate after 1 hr relative to control
# [15] = target: T1, ATP synthase (Mycobacterium tuberculosis) (UniProt P9WPU9+P9WPU5+P9WPU7+P9WPV5+P9WPS1+P9WPV1+P9WPV7+P9WPV3); experiment: Inhibition of ATP synthase in Mycobacterium tuberculosis H37Rv whole cell lysate after 18 hrs at 10X of MIC relative to control; format: subcellular
# Streptococcus pneumoniae = experiment: Antimicrobial activity against Streptococcus pneumoniae ATCC 49619; format: functional
# Staphylococcus aureus [16] = experiment: Antimicrobial activity against Staphylococcus aureus ATCC 29213; format: functional
# Escherichia coli [17] = experiment: Antimicrobial activity against Escherichia coli after 1 to 5 days by two-fold dilution; format: functional, organism-based
# [18] = system: Mycolicibacterium smegmatis; experiment: Antimicrobial activity against Mycobacterium smegmatis after 1 to 5 days by two-fold dilution; format: functional, organism-based
# Bacillus subtilis = experiment: Antimicrobial activity against Bacillus subtilis after 1 to 5 days by two-fold dilution; format: functional, organism-based
# Staphylococcus aureus [19] = experiment: Antimicrobial activity against Staphylococcus aureus after 1 to 5 days by two-fold dilution; format: functional, organism-based
# Pseudomonas aeruginosa = experiment: Antimicrobial activity against Pseudomonas aeruginosa after 1 to 5 days by two-fold dilution; format: functional, organism-based
# [20] = target: T1, ATP synthase (Mycobacterium tuberculosis); experiment: Inhibition of ATP synthase in Mycobacterium tuberculosis H37Rv whole cell lysate after 18 hrs at 5X of MIC relative to control; format: subcellular
molecule,measurement,setting,value
O=c1cc(-c2ccc(O)cc2)oc2cc(O)cc(O)c12,inhibition,Escherichia coli [1],40 to 60%
CCN(CC)Cc1cc(N(c2cc(C)nc3cc(Cl)ccc23)S(=O)(=O)c2ccc([N+](=O)[O-])cc2)ccc1O,MIC,[2],6.25 µg/mL
same,IC50,ATP synthase,0.36 to 1.83 µM
Oc1cc(O)c2c(c1)OC(c1ccc(O)c(O)c1)C(O)C2 (configuration not stated) [CATECHIN],inhibition,Escherichia coli [1],100%
same,IC50,[3],4000 µM
O=C(O[C@@H]1Cc2c(O)cc(O)cc2O[C@@H]1c1cc(O)c(O)c(O)c1)c1cc(O)c(O)c(O)c1 [EPIGALOCATECHIN GALLATE],IC50,[4],17 µM
COc1nc2ccc(Br)cc2cc1[C@@H](c1ccccc1)[C@@](O)(CCN(C)C)c1cccc2ccccc12 [BEDAQUILINE],IC50,[5],6.47 µM
same,selectivity ratio,[6],> 20000
same,MIC,[7],3.6 µg/mL
COc1cccc(N2CCN(CC(O)COC(c3ccccc3)c3cccc4ccccc34)CC2)c1 (configuration not stated),inhibition,[8],99%
Oc1ccc(/N=C/c2ccccc2O)cc1,inhibition,Escherichia coli [9],100%
same,IC50,[10],5 µM
CCN(CC)Cc1cc(N(c2cc(C)nc3cc(Cl)ccc23)S(=O)(=O)c2ccc(Cl)cc2)ccc1O,MIC,[2],6.25 µg/mL
same,IC50,ATP synthase,0.36 to 1.83 µM
O=[N+]([O-])c1cc(O)ccc1/N=C/c1ccccc1O,inhibition,Escherichia coli [9],100%
same,IC50,[10],6 µM
COc1ccc(-c2cc(=O)c3c(O)cc(O[C@@H]4O[C@H](CO[C@@H]5O[C@@H](C)[C@H](O)[C@@H](O)[C@H]5O)[C@@H](O)[C@H](O)[C@H]4O)cc3o2)cc1O,inhibition,Escherichia coli [1],40 to 60%
COc1cc(=O)oc(/C=C/C=C/C=C/C(C)=C/[C@]2(C)O[C@H](C)[C@](C)(O)[C@H]2O)c1C,inhibition,Saccharomyces cerevisiae,85%
Oc1cc2cc3ccccc3cc2cc1O,inhibition,Escherichia coli [9],22%
CCN(CC)Cc1cc(N(c2cc(C)nc3cc(Cl)ccc23)S(=O)(=O)c2cc(C)cc(C)c2)ccc1O,MIC,[2],6.25 µg/mL
same,IC50,ATP synthase,0.36 to 1.83 µM
NNC(=O)c1ccncc1,inhibition,[8],99%
O=C(CNC1CCCC1)N(c1ccccc1)c1ccccc1,selectivity ratio,[11],24
same,IC50,[7],10.4 µM
OC(COC(c1ccccc1)c1cccc2ccccc12)CN1CCN(c2ccccc2)CC1 (configuration not stated),inhibition,[8],91%
Oc1cccc(/N=C/c2ccccc2O)c1,inhibition,Escherichia coli [9],85%
same,IC50,[10],5.25 µM
NC12CC3CC(CC(C3)C1)C2 [AMANTADINE],inhibition,Escherichia coli [1],100%
same,IC50,[3],2500 µM
COc1cc(C2Oc3cc([C@H]4Oc5cc(O)cc(O)c5C(=O)[C@@H]4O)ccc3OC2CO)ccc1O (some centres not stated) [SILIBININ],inhibition,Escherichia coli [1],100%
same,IC50,[3],340 µM
COc1cc(/C=C/C(=O)CC(=O)/C=C/c2ccc(O)c(OC)c2)ccc1O [CURCUMIN],IC50,[4],45 µM
O=c1c(O)c(-c2ccc(O)c(O)c2)oc2cc(O)cc(O)c12 [QUERCETIN],inhibition,Escherichia coli [12],80%
same,IC50,[13],33 µM
SILYMARIN,IC50,[3],110 µM
COc1ccc(/C=C2/S/C(=N/N=C/c3ccccc3O)NC2=O)cc1,IC50,[5],0.312 µM
same,Ratio IC50,[14],51
same,inhibition,Mus musculus,32%
same,selectivity ratio,[6],80
same,MIC,[7],0.5 µg/mL
same,inhibition,[15],15 to 30%
COc1nc2ccc(Br)cc2cc1[C@H](c1cc(F)ccc1F)[C@](O)(CCCCN(C)C)c1ccccc1,MIC,Streptococcus pneumoniae,0.25 µg/mL
same,MIC,Staphylococcus aureus [16],1 µg/mL
Oc1cc2cc3ccccc3cc2c(O)c1O,inhibition,Escherichia coli [9],30%
Oc1ccc(/C=N/c2cccc(O)c2)cc1,inhibition,Escherichia coli [9],100%
same,IC50,[10],9 µM
Oc1ccc(O)cc1,inhibition,Escherichia coli [9],80%
Oc1cccc(/C=N/c2ccccc2O)c1,inhibition,Escherichia coli [9],85%
same,IC50,[10],9 µM
COc1ccc([C@@H]2CC(=O)c3c(O)cc(O[C@@H]4O[C@H](CO[C@@H]5O[C@@H](C)[C@H](O)[C@@H](O)[C@H]5O)[C@@H](O)[C@H](O)[C@H]4O)cc3O2)cc1O,inhibition,Escherichia coli [1],40 to 60%
O=c1c(O[C@@H]2O[C@H](CO)[C@@H](O)[C@H](O)[C@H]2O)c(-c2ccc(O)c(O)c2)oc2cc(O)cc(O)c12 [ISOQUERCETIN],inhibition,Escherichia coli [12],40%
same,IC50,[13],71 µM
COc1nc2ccc(Br)cc2cc1[C@H](c1ccccc1)[C@](O)(CCCCN(C)C)CCc1ccccc1,MIC,Streptococcus pneumoniae,0.25 µg/mL
same,MIC,Staphylococcus aureus [16],2 µg/mL
O=C(CNC1CCCCC1)N(c1ccccc1)c1ccccc1,selectivity ratio,[11],21.1
same,IC50,[7],14 µM
CCN(CC)Cc1cc(N(c2cc(C)nc3cc(Cl)ccc23)S(=O)(=O)c2ccc(Cl)s2)ccc1O,MIC,[2],6.25 µg/mL
same,IC50,ATP synthase,0.36 to 1.83 µM
Oc1ccccc1/C=N/c1ccccc1O,inhibition,Escherichia coli [9],95%
same,IC50,[10],7 µM
Oc1ccccc1O,inhibition,Escherichia coli [9],40%
O=c1c(O)c(-c2ccccc2)oc2cc(O)cc(O)c12,inhibition,Escherichia coli [1],0 to 20%
O=c1c(O)c(-c2ccc(O)cc2O)oc2cc(O)cc(O)c12 [MORIN],inhibition,Escherichia coli [1],100%
same,IC50,[3],70 µM
FC(F)(F)Oc1cccc(CNCCNC2C3CC4CC(C3)C2C4)c1 (configuration not stated),MIC,Escherichia coli [17],6.25 µg/mL
same,IC50,[18],20 µM
same,MIC,Bacillus subtilis,6.25 µg/mL
same,MIC,Staphylococcus aureus [19],6.25 µg/mL
same,MIC,Pseudomonas aeruginosa,12.5 µg/mL
CC[C@H](C)[C@H](NC(=O)CN)C(=O)NCC(=O)N[C@@H](C)C(=O)N[C@H](C(=O)N[C@@H](CC(C)C)C(=O)N[C@@H](CCCCN)C(=O)N[C@H](C(=O)N[C@@H](CC(C)C)C(=O)N[C@H](C(=O)N[C@H](C(=O)NCC(=O)N[C@@H](CC(C)C)C(=O)N1CCC[C@H]1C(=O)N[C@@H](C)C(=O)N[C@@H](CC(C)C)C(=O)N[C@H](C(=O)N[C@@H](CO)C(=O)N[C@@H](Cc1c[nH]c2ccccc12)C(=O)N[C@H](C(=O)N[C@@H](CCCCN)C(=O)N[C@@H](CCCNC(=N)N)C(=O)N[C@@H](CCCCN)C(=O)N[C@@H](CCCNC(=N)N)C(=O)N[C@@H](CCC(N)=O)C(=O)N[C@@H](CCC(N)=O)C(N)=O)[C@@H](C)CC)[C@@H](C)CC)[C@@H](C)O)[C@@H](C)O)C(C)C)C(C)C,inhibition,Escherichia coli [9],78%
Oc1cccc(O)c1,inhibition,Escherichia coli [9],20%
Oc1cc(O)cc(/C=C/c2ccc(O)c(O)c2)c1 [PICEATANNOL],inhibition,Escherichia coli [12],100%
same,IC50,[13],14 µM
same,IC50,[4],8 µM
O=c1cc(-c2ccccc2)oc2cc(O)cc(O)c12,inhibition,Escherichia coli [1],40 to 60%
O=c1c(-c2ccc(O)cc2)coc2cc(O)cc(O)c12,inhibition,Escherichia coli [1],40 to 60%
CC1(C)CC(=O)C(=CNc2ccccc2O)C(=O)C1,IC50,[5],4 µM
same,Ratio IC50,[14],11.6
same,inhibition,[20],15 to 30%
same,inhibition,Mus musculus,25%
same,selectivity ratio,[6],20
same,MIC,[7],2 µg/mL
COc1nc2ccc(Br)cc2cc1[C@H](c1ccccc1)[C@](O)(CCCCN1CCN(C)CC1)CCc1ccccc1,MIC,Streptococcus pneumoniae,0.25 µg/mL
same,MIC,Staphylococcus aureus [16],1 µg/mL
O=c1c(O)c(-c2ccc(O)cc2)oc2cc(O)cc(O)c12,inhibition,Escherichia coli [1],40 to 60%
C[C@H]1COc2c(N3CCN(C)CC3)c(F)cc3c(=O)c(C(=O)O)cn1c23.C[C@H]1COc2c(N3CCN(C)CC3)c(F)cc3c(=O)c(C(=O)O)cn1c23.O [LEVOFLOXACIN],MIC,Staphylococcus aureus [16],0.25 µg/mL
O=c1cc(-c2ccc(O)c(O)c2)oc2cc(O)cc(O)c12,inhibition,Escherichia coli [1],0 to 20%
O=c1cc(-c2ccccc2)oc2cc(O)c(O)c(O)c12 [BAICALEIN],inhibition,Escherichia coli [1],100%
same,IC50,[3],290 µM
C[C@@H]1O[C@@H](OC[C@H]2O[C@@H](Oc3c(-c4ccc(O)c(O)c4)oc4cc(O)cc(O)c4c3=O)[C@H](O)[C@@H](O)[C@@H]2O)[C@H](O)[C@H](O)[C@H]1O,inhibition,Escherichia coli [1],40 to 60%
O=[N+]([O-])c1ccc(/N=C/c2ccccc2O)c(O)c1,inhibition,Escherichia coli [9],100%
same,IC50,[10],5 µM
Oc1ccc(/C=C/c2cc(O)cc(O)c2)cc1 [RESVERATROL],inhibition,Escherichia coli [12],40%
same,IC50,[13],94 µM
same,IC50,[4],19 µM
CC(N)C12CC3CC(CC(C3)C1)C2 (configuration not stated) [RIMANTADINE],inhibition,Escherichia coli [1],100%
same,IC50,[3],2000 µM
CCN(CC)Cc1cc(N(c2cc(C)nc3cc(Cl)ccc23)S(=O)(=O)c2cccc(Cl)c2Cl)ccc1O,MIC,[2],3.12 µg/mL
same,IC50,ATP synthase,0.36 to 1.83 µM
OC(COC(c1ccccc1)c1cccc2ccccc12)CN1CCN(C(c2ccccc2)c2ccccc2)CC1 (configuration not stated),inhibition,[8],98%
COc1ccc(CC[C@@](O)(CCN(C)C)[C@@H](c2ccccc2)c2cc3cc(Br)ccc3nc2OC)cc1,MIC,Streptococcus pneumoniae,0.25 µg/mL
CCN(CC)Cc1cc(N(c2cc(C)nc3cc(Cl)ccc23)S(=O)(=O)c2ccc(Cl)cc2Cl)ccc1O,MIC,[2],3.12 µg/mL
same,IC50,ATP synthase,0.36 to 1.83 µM
O=c1c(-c2ccc(O)cc2)coc2cc(O)ccc12,inhibition,Escherichia coli [1],0 to 20%
Oc1cccc(/C=N/c2cccc(O)c2)c1,inhibition,Escherichia coli [9],100%
same,IC50,[10],2.25 µM
COc1ccccc1N1CCN(CC(O)COC(c2ccccc2)c2cccc3ccccc23)CC1 (configuration not stated),inhibition,[8],90%
